Data: patent US10174037B2, “Dihydropyrazolopyrimidinone compounds as PDE2 inhibitors” (Merck Sharp & Dohme Corp., priority 2015, dated 2019)

The compounds below were run against human PDE2A1 (Homo sapiens (Human), UniProt O00408) (assay: PDE selectivity IMAP FP assay, human PDE2A1). Details: Human PDE2; Lab B; read-out: Human PDE2 Ki (nM) Lab B.
human PDE2A1, sequence (O00408 other isoform, or with tags, fused parts or gaps): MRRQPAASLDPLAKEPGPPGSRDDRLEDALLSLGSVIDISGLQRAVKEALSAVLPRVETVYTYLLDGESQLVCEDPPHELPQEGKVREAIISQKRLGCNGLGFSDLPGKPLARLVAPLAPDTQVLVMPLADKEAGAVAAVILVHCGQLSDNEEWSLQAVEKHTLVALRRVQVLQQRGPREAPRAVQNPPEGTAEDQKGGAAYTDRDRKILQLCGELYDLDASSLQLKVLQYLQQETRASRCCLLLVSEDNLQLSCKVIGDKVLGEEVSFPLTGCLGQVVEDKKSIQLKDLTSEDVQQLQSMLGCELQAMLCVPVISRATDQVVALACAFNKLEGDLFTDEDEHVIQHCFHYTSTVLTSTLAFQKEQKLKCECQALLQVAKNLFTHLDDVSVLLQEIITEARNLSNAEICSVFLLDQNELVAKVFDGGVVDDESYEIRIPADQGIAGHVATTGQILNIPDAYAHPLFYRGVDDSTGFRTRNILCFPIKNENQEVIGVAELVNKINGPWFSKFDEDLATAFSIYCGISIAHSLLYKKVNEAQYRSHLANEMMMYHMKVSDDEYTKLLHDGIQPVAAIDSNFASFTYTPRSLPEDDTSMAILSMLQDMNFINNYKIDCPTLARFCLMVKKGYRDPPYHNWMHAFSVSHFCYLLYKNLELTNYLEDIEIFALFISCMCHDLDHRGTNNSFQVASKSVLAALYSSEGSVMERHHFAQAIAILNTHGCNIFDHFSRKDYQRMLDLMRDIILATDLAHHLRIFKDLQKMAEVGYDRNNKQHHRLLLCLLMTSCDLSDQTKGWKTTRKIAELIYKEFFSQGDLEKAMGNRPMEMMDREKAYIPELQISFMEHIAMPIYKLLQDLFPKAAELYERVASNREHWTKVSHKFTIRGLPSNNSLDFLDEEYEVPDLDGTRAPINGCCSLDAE
Assay type: biochemical
In short: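 IMAP fluorescence polarization assay; PDE2 substrate 50 nM FAM-cAMP containing 1000 nM cGMP, enzyme diluted for 20% substrate conversion, in 10 mM Tris HCl pH 7.2, 10 mM MgCl2, 1 mM DTT. Reaction 60 min at room temperature, stopped with IMAP binding solution; polarization read after 1 h. Ki reported.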
A Ki of 6.1 nM was found for `CC(c1ccc(OC(F)F)cc1)n1nc(C(F)(F)F)c2c(=O)[nH]c(O)nc21` (single isomer, unassigned) [Example 316, (S)- or (R)-1-{1-[4-(Difluoromethoxy)phenyl]ethyl}-6-hydroxy-3-(trifluoromethyl)-1,5-dihydro-4H-pyrazolo[3,4-d]pyrimidin-4-one] in this work.
A Ki of 326 nM was found for `CC(c1ccc(C(C)(F)F)cc1)n1nc(C(F)(F)F)c2c(=O)[nH]c(O)nc21` (single isomer, unassigned) [Example 317, (R)- or (S)-1-(1-(4-(1,1-Difluoroethyl)phenyl)ethyl)-6-hydroxy-3-(trifluoromethyl)-1H-pyrazolo[3,4-d]pyrimidin-4(5H)-one] in this work.
A Ki of 3 nM was found for `CC(c1ccc(C(C)(F)F)cc1)n1nc(C(F)(F)F)c2c(=O)[nH]c(O)nc21` (single isomer, unassigned) [Example 318, (S)- or (R)-1-(1-(4-(1,1-Difluoroethyl)phenyl)ethyl)-6-hydroxy-3-(trifluoromethyl)-1H-pyrazolo[3,4-d]pyrimidin-4(5H)-one] in this work.
A Ki of 590 nM was found for `CC(c1ccc(CC(F)F)cc1)n1nc(C(F)(F)F)c2c(=O)[nH]c(O)nc21` (single isomer, unassigned) [Example 319, (R)- or (S)-1-(1-(4-(2,2-Difluoroethyl)phenyl)ethyl)-6-hydroxy-3-(trifluoromethyl)-1H-pyrazolo[3,4-d]pyrimidin-4(5H)-one] in this work.
A Ki of 13 nM was found for `CC(c1ccc(CC(F)F)cc1)n1nc(C(F)(F)F)c2c(=O)[nH]c(O)nc21` (single isomer, unassigned) [Example 320, (S)- or (R)-1-(1-(4-(2,2-Difluoroethyl)phenyl)ethyl)-6-hydroxy-3-(trifluoromethyl)-1H-pyrazolo[3,4-d]pyrimidin-4(5H)-one] in this work.
A Ki of 145 nM was found for `CC(c1ccc(OC(F)(F)F)c(Cl)c1)n1nc(C(F)(F)F)c2c(=O)[nH]c(O)nc21` (single isomer, unassigned) [Example 321, (R)- or (S)-1-(1-(3-Chloro-4-(trifluoromethoxy)phenyl)ethyl)-6-hydroxy-3-(trifluoromethyl)-1H-pyrazolo[3,4-d]pyrimidin-4(5H)-one] in this work.
A Ki of 9.3 nM was found for `CC(c1ccc(OC(F)(F)F)c(Cl)c1)n1nc(C(F)(F)F)c2c(=O)[nH]c(O)nc21` (single isomer, unassigned) [Example 322, (S)- or (R)-1-(1-(3-Chloro-4-(trifluoromethoxy)phenyl)ethyl)-6-hydroxy-3-(trifluoromethyl)-1H-pyrazolo[3,4-d]pyrimidin-4(5H)-one] in this work.
A Ki of 304 nM was found for `CC(c1ccc(OC(F)F)c(F)c1)n1nc(C(F)(F)F)c2c(=O)[nH]c(O)nc21` (single isomer, unassigned) [Example 323, (R)- or (S)-1-(1-(4-(Difluoromethoxy)-3-fluorophenyl)ethyl)-6-hydroxy-3-(trifluoromethyl)-1H-pyrazolo[3,4-d]pyrimidin-4(5H)-one] in this work.
A Ki of 6.8 nM was found for `CC(c1ccc(OC(F)F)c(F)c1)n1nc(C(F)(F)F)c2c(=O)[nH]c(O)nc21` (single isomer, unassigned) [Example 324, (S)- or (R)-1-(1-(4-(Difluoromethoxy)-3-fluorophenyl)ethyl)-6-hydroxy-3-(trifluoromethyl)-1H-pyrazolo[3,4-d]pyrimidin-4(5H)-one] in this work.
A Ki of 529 nM was found for `CC(c1ccc(OC(F)F)c(Cl)c1)n1nc(C(F)(F)F)c2c(=O)[nH]c(O)nc21` (single isomer, unassigned) [Example 325, (R)- or (S)-1-(1-(3-Chloro-4-(difluoromethoxy)phenyl)ethyl)-6-hydroxy-3-(trifluoromethyl)-1H-pyrazolo[3,4-d]pyrimidin-4(5H)-one] in this work.
A Ki of 16 nM was found for `CC(c1ccc(OC(F)F)c(Cl)c1)n1nc(C(F)(F)F)c2c(=O)[nH]c(O)nc21` (single isomer, unassigned) [Example 326, (S)- or (R)-1-(1-(3-Chloro-4-(difluoromethoxy)phenyl)ethyl)-6-hydroxy-3-(trifluoromethyl)-1H-pyrazolo[3,4-d]pyrimidin-4(5H)-one] in this work.
A Ki of 382 nM was found for `CC(c1ccc(C(F)(F)F)c(Cl)c1)n1nc(C(F)(F)F)c2c(=O)[nH]c(O)nc21` (single isomer, unassigned) [Example 327, (R)- or (S)-1-(1-(3-Chloro-4-(trifluoromethyl)phenyl)ethyl)-6-hydroxy-3-(trifluoromethyl)-1H-pyrazolo[3,4-d]pyrimidin-4(5H)-one] in this work.
A Ki of 3 nM was found for `CC(c1ccc(C(F)(F)F)c(Cl)c1)n1nc(C(F)(F)F)c2c(=O)[nH]c(O)nc21` (single isomer, unassigned) [Example 328, (S)- or (R)-1-(1-(3-Chloro-4-(trifluoromethyl)phenyl)ethyl)-6-hydroxy-3-(trifluoromethyl)-1H-pyrazolo[3,4-d]pyrimidin-4(5H)-one] in this work.
A Ki of 346 nM was found for `CCC(c1ccc(C(F)(F)F)cc1)n1nc(C(F)(F)F)c2c(=O)[nH]c(O)nc21` (single isomer, unassigned) [Example 331, (R)- or (S)-6-Hydroxy-3-(trifluoromethyl)-1-(1-(4-(trifluoromethyl)phenyl)propyl)-1H-pyrazolo[3,4-d]pyrimidin-4(5H)-one] in this work.
A Ki of 3.3 nM was found for `CCC(c1ccc(C(F)(F)F)cc1)n1nc(C(F)(F)F)c2c(=O)[nH]c(O)nc21` (single isomer, unassigned) [Example 332, (S)- or (R)-6-hydroxy-3-(trifluoromethyl)-1-(1-(4-(trifluoromethyl)phenyl)propyl)-1H-pyrazolo[3,4-d]pyrimidin-4(5H)-one] in this work.
A Ki of 134 nM was found for `CC(C)C(c1ccc(C(F)(F)F)cc1)n1nc(C(F)(F)F)c2c(=O)[nH]c(O)nc21` (single isomer, unassigned) [Example 333, (R)- or (S)-6-Hydroxy-1-(2-methyl-1-(4-(trifluoromethyl)phenyl)propyl)-3-(trifluoromethyl)-1H-pyrazolo[3,4-d]pyrimidin-4(5H)-one] in this work.
A Ki of 2.3 nM was found for `CC(C)C(c1ccc(C(F)(F)F)cc1)n1nc(C(F)(F)F)c2c(=O)[nH]c(O)nc21` (single isomer, unassigned) [Example 334, (S)- or (R)-6-Hydroxy-1-(2-methyl-1-(4-(trifluoromethyl)phenyl)propyl)-3-(trifluoromethyl)-1H-pyrazolo[3,4-d]pyrimidin-4(5H)-one] in this work.
A Ki of 137 nM was found for `O=c1[nH]c(O)nc2c1c(C(F)(F)F)nn2C(c1ccc(C(F)(F)F)cc1)C1CC1` (single isomer, unassigned) [Example 335, (R)- or (S)-1-(Cyclopropyl(4-(trifluoromethyl)phenyl)methyl)-6-hydroxy-3-(trifluoromethyl)-1H-pyrazolo[3,4-d]pyrimidin-4(5H)-one] in this work.
A Ki of 3.2 nM was found for `O=c1[nH]c(O)nc2c1c(C(F)(F)F)nn2C(c1ccc(C(F)(F)F)cc1)C1CC1` (single isomer, unassigned) [Example 336, (S)- or (R)-1-(Cyclopropyl(4-(trifluoromethyl)phenyl)methyl)-6-hydroxy-3-(trifluoromethyl)-1H-pyrazolo[3,4-d]pyrimidin-4(5H)-one] in this work.
A Ki of 2360 nM was found for `CC(C)(C)C(c1ccc(C(F)(F)F)cc1)n1nc(C(F)(F)F)c2c(=O)[nH]c(O)nc21` (single isomer, unassigned) [Example 337, (R)- or (S)-1-(2,2-Dimethyl-1-(4-(trifluoromethyl)phenyl)propyl)-6-hydroxy-3-(trifluoromethyl)-1H-pyrazolo[3,4-d]pyrimidin-4(5H)-one] in this work.
